Measured values: patent US20220061311A1, “COMPOSITIONS AND METHODS FOR REDUCING CRYOPRESERVATION TOXICITY” (The Regents of the University of Colorado, a body, priority 2018, published 2022)
Values joined by “and” are separate entries in the source; they are usually repeats but may differ in a detail not shown here. Identical values can stand only once. Like-named read-outs stand apart in the source and are kept apart here.

Experiments:
[1] = tested on: ERB3/4; conditions: cited from earlier work
[2] = tested on: TJ1060 worms; assay: Survival on Afatinib on agar plates; format: in vivo, C. elegans; set-up: Mean (survival): unit not given here; conditions: for Mean (survival) / survival (vs no Afatinib control): agar plates
Protocol: Eggs from TJ1060 were put onto NGM agar plates with varying concentrations of Afatinib at 25° C. On day 3, sterile staged young adult worms were moved to agar plates with Afatinib at 20° C. and followed until all were dead.

[3] = tested on: TJ1060 worms; assay: Worms on 10% M22 +/- Afatinib in liquid survival medium; format: in vivo, C. elegans; set-up: Mean (survival): unit not given here
Protocol: FIG. 6 is a histogram. Sterile young adult worms (TJ1060) were put into liquid survival medium with 10% M22 and varying concentrations of Afatinib and followed until all were dead. Data from 4 replicate blinded experiments are shown.
Young adult worms from TJ1060 were grown on agar plates at 25° C. with varying concentrations of Afatinib and put into liquid survival medium with 10% M22+/−Afatinib at 20° C. They were followed until all were dead. Data from 4 replicate experiments are shown; experiments were blinded.

[4] = tested on: Mouse embryonic stem cells (ESCs); assay: Afatinib pre-treatment of mouse embryonic stem cells before M22 toxicity challenge; format: cell-based
Protocol: Mouse embryonic stem cells (ESCs) were pre-treated with Afatinib in concentrations of 1 nM, 7.5 nM, 15 nM, 30 nM, and 75 nM. The ESCs were then subjected to various concentrations of M22, including a lethal challenge of 6% in normal culture media.

[5] = target: MYH9 protein (Homo sapiens, UniProt P35579); conditions: Chiu et al., Molecular Oncology 6, 2012; cited from earlier work
Sequence of MYH9 protein (P35579 whole entry, species assumed): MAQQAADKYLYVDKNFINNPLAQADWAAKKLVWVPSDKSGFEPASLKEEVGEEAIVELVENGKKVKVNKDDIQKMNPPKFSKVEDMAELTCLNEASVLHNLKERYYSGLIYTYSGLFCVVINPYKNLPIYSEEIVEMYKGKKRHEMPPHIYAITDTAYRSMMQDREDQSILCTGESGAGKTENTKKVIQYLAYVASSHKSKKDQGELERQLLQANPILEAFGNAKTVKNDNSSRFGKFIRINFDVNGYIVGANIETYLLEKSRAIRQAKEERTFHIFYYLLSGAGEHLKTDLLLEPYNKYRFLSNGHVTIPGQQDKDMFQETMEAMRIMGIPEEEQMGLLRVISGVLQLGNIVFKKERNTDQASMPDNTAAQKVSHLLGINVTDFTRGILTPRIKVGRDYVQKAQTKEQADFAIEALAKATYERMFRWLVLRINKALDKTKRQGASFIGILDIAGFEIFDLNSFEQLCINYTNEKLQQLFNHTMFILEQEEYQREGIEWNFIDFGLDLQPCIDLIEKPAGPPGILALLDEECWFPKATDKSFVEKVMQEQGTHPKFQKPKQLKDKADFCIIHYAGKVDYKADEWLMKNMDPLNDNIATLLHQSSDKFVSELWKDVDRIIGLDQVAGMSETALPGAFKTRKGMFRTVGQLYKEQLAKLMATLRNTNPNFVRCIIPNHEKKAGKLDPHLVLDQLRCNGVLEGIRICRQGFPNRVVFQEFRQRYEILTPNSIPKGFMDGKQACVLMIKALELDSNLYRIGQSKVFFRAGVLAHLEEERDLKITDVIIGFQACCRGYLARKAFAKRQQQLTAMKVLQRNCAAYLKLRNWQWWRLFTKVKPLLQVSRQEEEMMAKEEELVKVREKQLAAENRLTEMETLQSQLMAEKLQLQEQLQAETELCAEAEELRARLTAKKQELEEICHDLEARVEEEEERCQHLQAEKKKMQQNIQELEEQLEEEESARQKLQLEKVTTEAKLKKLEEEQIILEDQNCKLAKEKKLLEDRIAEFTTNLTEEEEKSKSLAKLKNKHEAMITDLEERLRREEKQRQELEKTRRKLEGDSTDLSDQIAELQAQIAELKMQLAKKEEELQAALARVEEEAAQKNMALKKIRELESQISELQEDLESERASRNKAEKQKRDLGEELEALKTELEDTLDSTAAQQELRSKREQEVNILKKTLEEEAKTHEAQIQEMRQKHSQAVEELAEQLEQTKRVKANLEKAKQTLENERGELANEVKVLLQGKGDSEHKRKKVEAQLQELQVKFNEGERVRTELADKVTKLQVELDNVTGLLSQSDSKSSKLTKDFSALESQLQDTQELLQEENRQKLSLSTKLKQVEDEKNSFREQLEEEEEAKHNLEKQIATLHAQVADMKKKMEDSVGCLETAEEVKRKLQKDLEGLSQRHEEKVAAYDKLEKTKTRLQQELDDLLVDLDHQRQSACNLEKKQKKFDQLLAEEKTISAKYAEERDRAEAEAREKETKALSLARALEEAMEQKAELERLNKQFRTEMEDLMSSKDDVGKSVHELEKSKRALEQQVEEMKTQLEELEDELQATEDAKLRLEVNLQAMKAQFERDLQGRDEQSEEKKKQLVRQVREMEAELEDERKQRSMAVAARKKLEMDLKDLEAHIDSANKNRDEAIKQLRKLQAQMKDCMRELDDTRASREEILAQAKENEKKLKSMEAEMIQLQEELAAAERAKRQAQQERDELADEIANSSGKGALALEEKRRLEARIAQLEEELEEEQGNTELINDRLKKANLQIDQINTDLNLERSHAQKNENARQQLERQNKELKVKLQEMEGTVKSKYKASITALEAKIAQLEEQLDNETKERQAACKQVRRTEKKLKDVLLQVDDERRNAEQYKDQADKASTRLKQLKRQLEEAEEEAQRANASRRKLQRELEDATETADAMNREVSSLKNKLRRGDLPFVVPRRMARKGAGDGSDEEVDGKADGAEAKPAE

[6] = tested on: HSBP1 protein; conditions: Arai et al., Chem. Sci., 2016; cited from earlier work
[7] = 10% M22 + Afatinib 10 nM, summary of 4 experiments
[8] = 10% M22 + Afatinib 100 nM, summary of 4 experiments
[9] = 10% M22 + Afatinib 1000 nM, summary of 4 experiments

CN(C)C/C=C/C(=O)Nc1cc2c(Nc3ccc(F)c(Cl)c3)ncnc2cc1O[C@H]1CCOC1 [Afatinib]
IC50 ([1]; read-out: IC50): ~1 nM | IC50 ([1]; read-out: IC50 DOSE): 1 nM | Mean (survival) ([2]; Afatinib 10 nM, no M22, single experiments): 20.5 and 19.7 and 19.1 and 22.1 | survival (vs no Afatinib control) ([2]; Afatinib 10 nM, single experiments): less and ns | Mean (survival) ([2]; Afatinib 10 nM, summary): 20.3 | survival (vs no Afatinib control) ([2]; Afatinib 10 nM, summary): ns | Mean (survival) ([2]; Afatinib 20 nM, no M22, single experiment): 21.1 | survival (vs no Afatinib control) ([2]; Afatinib 20 nM, single experiment): ns | Mean (survival) ([2]; Afatinib 100 nM, no M22, single experiments): 19.4 and 21.1 and 19.8 and 21.8 | survival (vs no Afatinib control) ([2]; Afatinib 100 nM, single experiments): less and more and ns | Mean (survival) ([2]; Afatinib 100 nM, summary): 20.4 | survival (vs no Afatinib control) ([2]; Afatinib 100 nM, summary): ns | Mean (survival) ([2]; Afatinib 1000 nM, no M22, single experiments): 20.8 and 21.7 and 19.4 and 20.0 | survival (vs no Afatinib control) ([2]; Afatinib 1000 nM, single experiments): ns and more and less | Mean (survival) ([2]; Afatinib 1000 nM, summary): 20.6 | survival (vs no Afatinib control) ([2]; Afatinib 1000 nM, summary): less | longevity effect ([2]; worms, Afatinib without M22): did not have a longevity effect | Mean (survival) ([3]; 10% M22 + Afatinib 10 nM, liquid, 20° C., single experiments): 12.4 and 12.3 and 14.6 and 10.4 | resistance (vs no Afatinib control) ([3]; 10% M22 + Afatinib 10 nM, single experiments): ns and less | Mean (survival) [3, 7]: 12.5 | resistance (vs no Afatinib control) [3, 7]: ns | Mean (survival) ([3]; 10% M22 + Afatinib 100 nM, liquid, 20° C., single experiments): 13.5 and 13.2 and 15.3 and 11.3 | resistance (vs no Afatinib control) ([3]; 10% M22 + Afatinib 100 nM, single experiments): more and ns | Mean (survival) [3, 8]: 13.4 | resistance (vs no Afatinib control) [3, 8]: more | Mean (survival) ([3]; 10% M22 + Afatinib 1000 nM, liquid, 20° C., single experiments): 13.2 and 13.0 and 15.6 and 10.3 | resistance (vs no Afatinib control) ([3]; 10% M22 + Afatinib 1000 nM, single experiments): ns and more | Mean (survival) [3, 9]: 13.0 | resistance (vs no Afatinib control) [3, 9]: ns | protection of worms in 10% M22 ([3]; Afatinib 10 or 1000 nm): not | survival in 10% M22 compared with control of no afatinib (FIG. 6) ([3]; Afatinib at 100 nM, 4 replicate blinded experiments, p<0.001): significantly better than control of no afatinib | protection of worms in 10% M22 ([3]; Afatinib concentration of 100 nm): protects worms in 10% M22 | resistance to M22 toxicity ([4]; ESCs pre-treated with Afatinib 1-75 nM, lower M22 concentrations (FIG. 1)): increased resistance to M22 toxicity | survival of otherwise lethal M22 challenge ([4]; ESCs pre-treated with Afatinib, 6% M22 in normal culture media (FIG. 1)): survived an otherwise lethal M22 challenge | survival of cells after cryopreservative toxicity challenge with M22 (FIG. 1) ([4]; cells treated with Afatinib prior to M22 challenge): increased survival

Cc1ccc2c(c1)C(=O)C1(O)CCN(c3ccccc3)C1=N2 (stereo not shown) [Blebbistatin]
inhibition of MYH9 protein [5]: Blebbistatin inhibits the MYH9

COc1ccc(-c2cc(=O)c3c(O[C@@H]4O[C@H](CO[C@@H]5OC[C@@H](O)[C@H](O)[C@H]5O)[C@@H](O)[C@H](O)[C@H]4O)cc(OC)cc3o2)cc1 [Agalloside]
inhibition of HSBP1 protein [6]: Agalloside inhibits the HSBP1
